Assay results: ChEMBL document CHEMBL1275589, “Molecular epidemiology, sequence types, and plasmid analyses of KPC-producing Klebsiella pneumoniae strains in Israel” (2010)

Key:
[1] = tested on: Klebsiella pneumoniae; experiment: Antimicrobial activity against carbapenem-resistant KPC-2 producing Klebsiella pneumoniae 475 ST 277 expressing beta-lactamase SHV-27, CTX-M-15 and OXA-4 by agar dilution method in presence of beta-lactamase inhibitor Tazobactam; type: functional
[2] = tested on: Klebsiella pneumoniae; experiment: Antimicrobial activity against carbapenem-resistant KPC-2 producing Klebsiella pneumoniae 475transformant by agar dilution method in presence of beta-lactamase inhibitor Tazobactam; type: functional
[3] = tested on: Klebsiella pneumoniae; experiment: Antimicrobial activity against carbapenem-resistant KPC-2 producing Klebsiella pneumoniae 469 ST 277 expressing beta-lactamase SHV-27, CTX-M-15 and OXA-4 by agar dilution method in presence of beta-lactamase inhibitor Tazobactam; type: functional
[4] = tested on: Klebsiella pneumoniae; experiment: Antimicrobial activity against carbapenem-resistant KPC-2 producing Klebsiella pneumoniae 469 transformant by agar dilution method in presence of beta-lactamase inhibitor Tazobactam; type: functional
[5] = tested on: Klebsiella pneumoniae; experiment: Antimicrobial activity against carbapenem-resistant KPC-2 producing Klebsiella pneumoniae 523 ST 340 expressing beta-lactamase TEM-1, SHV-11 and OXA-2 by agar dilution method in presence of beta-lactamase inhibitor Tazobactam; type: functional
[6] = tested on: Klebsiella pneumoniae; experiment: Antimicrobial activity against carbapenem-resistant KPC-2 producing Klebsiella pneumoniae 523transformant by agar dilution method in presence of beta-lactamase inhibitor Tazobactam; type: functional
[7] = tested on: Klebsiella pneumoniae; experiment: Antimicrobial activity against carbapenem-resistant KPC-2 producing Klebsiella pneumoniae 588 ST 340 expressing beta-lactamase TEM-1 and SHV-11 by agar dilution method in presence of beta-lactamase inhibitor Tazobactam; type: functional
[8] = tested on: Klebsiella pneumoniae; experiment: Antimicrobial activity against carbapenem-resistant KPC-2 producing Klebsiella pneumoniae 588 transformant by agar dilution method in presence of beta-lactamase inhibitor Tazobactam; type: functional
[9] = tested on: Klebsiella pneumoniae; experiment: Antimicrobial activity against carbapenem-resistant KPC-2 producing Klebsiella pneumoniae 365 transformant by agar dilution method in presence of beta-lactamase inhibitor Tazobactam; type: functional
[10] = tested on: Klebsiella pneumoniae; experiment: Antimicrobial activity against carbapenem-resistant KPC-2 producing Klebsiella pneumoniae 531 ST 376 expressing beta-lactamase SHV-1 by agar dilution method in presence of beta-lactamase inhibitor Tazobactam; type: functional
[11] = tested on: Klebsiella pneumoniae; experiment: Antimicrobial activity against carbapenem-resistant KPC-2 producing Klebsiella pneumoniae 531 transformant by agar dilution method in presence of beta-lactamase inhibitor Tazobactam; type: functional
[12] = tested on: Klebsiella pneumoniae; experiment: Antimicrobial activity against carbapenem-resistant KPC-2 producing Klebsiella pneumoniae 525 ST 376 expressing beta-lactamase SHV-1 by agar dilution method in presence of beta-lactamase inhibitor Tazobactam; type: functional
[13] = tested on: Klebsiella pneumoniae; experiment: Antimicrobial activity against carbapenem-resistant KPC-2 producing Klebsiella pneumoniae 525 transformant by agar dilution method in presence of beta-lactamase inhibitor Tazobactam; type: functional
[14] = tested on: Klebsiella pneumoniae; experiment: Antimicrobial activity against carbapenem-resistant KPC-2 producing Klebsiella pneumoniae 526 ST 376 expressing beta-lactamase SHV-1 by agar dilution method in presence of beta-lactamase inhibitor Tazobactam; type: functional
[15] = tested on: Klebsiella pneumoniae; experiment: Antimicrobial activity against carbapenem-resistant KPC-2 producing Klebsiella pneumoniae 526 transformant by agar dilution method in presence of beta-lactamase inhibitor Tazobactam; type: functional
[16] = tested on: Klebsiella pneumoniae; experiment: Antimicrobial activity against KPC-3 producing Klebsiella pneumoniae 549 ST 327 expressing beta-lactamase TEM-1 and CTX-M-2 by agar dilution method in presence of beta-lactamase inhibitor Tazobactam; type: functional
[17] = tested on: Klebsiella pneumoniae; experiment: Antimicrobial activity against KPC-3 producing Klebsiella pneumoniae 549 transformant by agar dilution method in presence of beta-lactamase inhibitor Tazobactam; type: functional
[18] = tested on: Klebsiella pneumoniae; experiment: Antimicrobial activity against KPC-3 producing Klebsiella pneumoniae 557 transformant by agar dilution method in presence of beta-lactamase inhibitor Tazobactam; type: functional
[19] = tested on: Escherichia coli; experiment: Antimicrobial activity against Escherichia coli Genehogs by agar dilution method in presence of beta-lactamase inhibitor Tazobactam; type: functional
[20] = tested on: Klebsiella pneumoniae; experiment: Antimicrobial activity against KPC-3 producing Klebsiella pneumoniae 557 ST 258 expressing beta-lactamase TEM-1 by agar dilution method in presence of beta-lactamase inhibitor Tazobactam
[21] = tested on: Klebsiella pneumoniae; experiment: Antimicrobial activity against carbapenem-resistant KPC-2 producing Klebsiella pneumoniae 365 ST 376 expressing beta-lactamase SHV-1, CTX-M-15 and OXA-4 by agar dilution method in presence of beta-lactamase inhibitor Tazobactam
[22] = tested on: Klebsiella pneumoniae; experiment: Antimicrobial activity against carbapenem-resistant KPC-2 producing Klebsiella pneumoniae 523 ST 340 expressing beta-lactamase TEM-1, SHV-11 and OXA-2 by Etest; type: functional
[23] = tested on: Klebsiella pneumoniae; experiment: Antimicrobial activity against carbapenem-resistant KPC-2 producing Klebsiella pneumoniae 523 transformant by Etest; type: functional
[24] = tested on: Klebsiella pneumoniae; experiment: Antimicrobial activity against carbapenem-resistant KPC-2 producing Klebsiella pneumoniae 588 ST 340 expressing beta-lactamase TEM-1 and SHV-11 by Etest; type: functional
[25] = tested on: Klebsiella pneumoniae; experiment: Antimicrobial activity against carbapenem-resistant KPC-2 producing Klebsiella pneumoniae 588 transformant by Etest; type: functional
[26] = tested on: Klebsiella pneumoniae; experiment: Antimicrobial activity against carbapenem-resistant KPC-2 producing Klebsiella pneumoniae 365 transformant by Etest; type: functional
[27] = tested on: Klebsiella pneumoniae; experiment: Antimicrobial activity against carbapenem-resistant KPC-2 producing Klebsiella pneumoniae 531 ST 376 expressing beta-lactamase SHV-1 by Etest; type: functional
[28] = tested on: Klebsiella pneumoniae; experiment: Antimicrobial activity against carbapenem-resistant KPC-2 producing Klebsiella pneumoniae 531 transformant by Etest; type: functional
[29] = tested on: Klebsiella pneumoniae; experiment: Antimicrobial activity against carbapenem-resistant KPC-2 producing Klebsiella pneumoniae 525 ST 376 expressing beta-lactamase SHV-1 by Etest; type: functional
[30] = tested on: Klebsiella pneumoniae; experiment: Antimicrobial activity against carbapenem-resistant KPC-2 producing Klebsiella pneumoniae 525 transformant by Etest; type: functional
[31] = tested on: Klebsiella pneumoniae; experiment: Antimicrobial activity against carbapenem-resistant KPC-2 producing Klebsiella pneumoniae 526 ST 376 expressing beta-lactamase SHV-1 by Etest; type: functional
[32] = tested on: Klebsiella pneumoniae; experiment: Antimicrobial activity against carbapenem-resistant KPC-2 producing Klebsiella pneumoniae 526 transformant by Etest; type: functional
[33] = tested on: Klebsiella pneumoniae; experiment: Antimicrobial activity against KPC-3 producing Klebsiella pneumoniae 549 ST 327 expressing beta-lactamase TEM-1 and CTX-M-2 by Etest; type: functional
[34] = tested on: Klebsiella pneumoniae; experiment: Antimicrobial activity against KPC-3 producing Klebsiella pneumoniae 549 transformant by Etest; type: functional
[35] = tested on: Klebsiella pneumoniae; experiment: Antimicrobial activity against KPC-3 producing Klebsiella pneumoniae 557 transformant by Etest; type: functional
[36] = tested on: Escherichia coli; experiment: Antimicrobial activity against Escherichia coli Genehogs by Etest; type: functional
[37] = tested on: Klebsiella pneumoniae; experiment: Antimicrobial activity against carbapenem-resistant KPC-2 producing Klebsiella pneumoniae 475 ST 277 expressing beta-lactamase SHV-27, CTX-M-15 and OXA-4 by Etest; type: functional
[38] = tested on: Klebsiella pneumoniae; experiment: Antimicrobial activity against carbapenem-resistant KPC-2 producing Klebsiella pneumoniae 475 transformant by Etest; type: functional
[39] = tested on: Klebsiella pneumoniae; experiment: Antimicrobial activity against carbapenem-resistant KPC-2 producing Klebsiella pneumoniae 469 ST 277 expressing beta-lactamase SHV-27, CTX-M-15 and OXA-4 by Etest; type: functional
[40] = tested on: Klebsiella pneumoniae; experiment: Antimicrobial activity against carbapenem-resistant KPC-2 producing Klebsiella pneumoniae 469 transformant by Etest; type: functional
[41] = tested on: Klebsiella pneumoniae; experiment: Antimicrobial activity against KPC-3 producing Klebsiella pneumoniae 557 ST 258 expressing beta-lactamase TEM-1 by Etest
[42] = tested on: Klebsiella pneumoniae; experiment: Antimicrobial activity against carbapenem-resistant KPC-2 producing Klebsiella pneumoniae 365 ST 376 expressing beta-lactamase SHV-1, CTX-M-15 and OXA-4 by Etest

Measured: MIC

CCN1CCN(C(=O)N[C@@H](C(=O)N[C@@H]2C(=O)N3[C@@H]2SC(C)(C)[C@@H]3C(=O)O)c2ccccc2)C(=O)C1=O [PIPERACILLIN]
> 128 µg/mL: [1] | [2] | [3] | [4] | [6] | [7] | [8] | [9] | [10] | [12] | [14] | [15] | [21]
< 4 µg/mL: [19]
64 µg/mL: [11] | [13] | [17] | [18]
> 320 µg/mL: [16] | [20]
128 µg/mL: [5]

CN(C)c1cc(NC(=O)CNC(C)(C)C)c(O)c2c1C[C@H]1C[C@H]3[C@H](N(C)C)C(O)=C(C(N)=O)C(=O)[C@@]3(O)C(O)=C1C2=O [TIGECYCLINE]
1.5 µg/mL: [27] | [31]
0.125 µg/mL: [23] | [25] | [26] | [28] | [30] | [32] | [35] | [38] | [40]
0.5 µg/mL: [22]
2 µg/mL: [24]
1 µg/mL: [29] | [39] | [42]
0.094 µg/mL: [36]
4 µg/mL: [37] | [41]
0.75 µg/mL: [33]
0.19 µg/mL: [34]
